The values below come from patent US9448244B2, “Compound, and method for measuring iron concentration by using novel compound as chelate color former” (WAKO PURE CHEMICAL INDUSTRIES, LTD., priority 2012, dated 2016).

Molecules are shown by their SMILES. “Also recorded” adds a separate entry of the source.

Series [1] is described as follows: Absorbance measurement of iron chelate color development, first reagent solution pH 3.2 (Example 4 / Comparative Example 2). As to conditions: aqueous iron solution 200 μg/dL; R-1 glycine pH 3.2 (condition of serum iron measurement), R-2 tricine pH 9.0; color former 0.23 mM. The series is classed as physicochemical. The protocol: (§1) [Preparation of Reagent Solution]
(§2) (R-1) First Reagent Solution:
A 10 mM glycine buffer solution (pH 3.2) containing 0.5% (w/v) polyvinylpyrrolidone (K-90) (produced by Wako Pure Chemical Industries, Ltd.) was used as the first reagent solution.
(§3) (R-2) Second Reagent Solution:
A 100 mM tricine buffer solution (pH 9.0) containing 1 mM 4S-SPF which was synthesized in Example 1 or 1 mM 2S-4CPF which was synthesized in Example 2 was used as the second reagent solution.
The sample used was same as used in Example 3.
(§4) [Measurement of Absorbance]
For the above-described sample, the measurement of absorbance was carried out using the reagent solution described above and using JEOL BM6050 automatic analyzer (manufactured by JEOL Co., Ltd.) by the same measurement conditions as performed in Example 3.
It should be noted that, the concentration of 4S-SPF or 2S-4CPF at the time of measurement was 0.23 mM.
A 10 mM glycine buffer solution (pH 3.2) containing 0.5% (w/v) polyvinylpyrrolidone (K-90) was used as the first reagent solution.
A 100 mM tricine buffer solution (pH 9.0) containing 1 mM CPF was used as the second reagent solution. CPF was synthesized according to the method described in the Mitsuru Hoshino et al., Yakugaku Zassi, 2011, vol. 131, No. 7, p. 1095-1101 (Non-Patent Literature 1), and used.
The sample used was the same as used in Example 4.
For the above-described sample, the measurement of absorbance was carried out using the reagent solution described above and using JEOL BM6050 automatic analyzer (manufactured by JEOL Co., Ltd.) by the same measurement conditions as performed in Example 4.
It should be noted that, the concentration of the CPF at the time of measurement was 0.23

A short description of series [2]: Absorbance measurement of iron chelate color development, first reagent solution pH 8.0 (Example 3 / Comparative Example 1). The series is classed as physicochemical. As to conditions: aqueous iron solution 200 μg/dL; R-1 tricine pH 8.0, R-2 tricine pH 8.0; color former 0.23 mM; 37° C. The protocol: as §1, §2
A 100 mM tricine buffer solution (pH 8.0) containing 0.5% (w/v) polyvinylpyrrolidone (K-90) (produced by Wako Pure Chemical Industries, Ltd.) was used as the first reagent solution.
as §3
A 100 mM tricine buffer solution (pH 8.0) containing 1 mM 4S-SPF synthesized in Example 1 or 1 mM 2S-4CPF synthesized in Example 2 was used as the second reagent solution.
Aqueous ferrous ammonium sulfate solution (containing 200 μg/dL iron) was prepared and used as a sample.
as §4
For the above-described sample, the measurement of absorbance was carried out using the reagent solution described above, and using JEOL BM6050 automatic analyzer (manufactured by JEOL Co., Ltd.) by the following measurement conditions. In addition, when the measurement of reagent blank, measurement was carried out in the same manner using physiological saline instead of the sample.
Analysis method/Reaction time: [EPA] [10]
Measurement point: [44], [47]-[95], [98].
Wavelength (secondary/dominant): [694] [596]
Sample volume: 8 μL (2 times dilution at measurement)
Measurement temperature: 37° C.
It should be noted that the concentration of 4S-SPF or 2S-4CPF at the time of measurement was 0.23 mM.
A 100 mM tricine buffer solution (pH 8.0) containing 0.5% (w/v) polyvinylpyrrolidone (K-90) was used as the first reagent solution.
A 100 mM tricine buffer solution (pH 8.0) containing 1 mM CPF was used as the second reagent solution. The CPF was synthesized according to the method described in the Mitsuru Hoshino et al., Yakugaku Zassi, 2011, vol. 131, No. 7, p. 1095-1101 (Non-Patent Literature 1), and used.
Aqueous ferrous ammonium sulfate solution (containing 200 μg/dL iron) prepared and used as a sample.
For the above-described sample, the measurement of absorbance was carried out using the reagent solution described above and using JEOL BM6050 automatic analyzer (manufactured by JEOL Co., Ltd.) by the same measurement conditions as performed in Example 3. […]

With `O=c1cc2oc3cc(O)c(O)cc3c(-c3ccc(S(=O)(=O)O)cc3S(=O)(=O)O)c-2cc1O` [4S-SPF, 9-(2,4-disulfophenyl)-2,3,7-trihydroxy-6-fluorone], the “color fading after color development” value is “fading after color development was not observed” in series [1] and “color fading was not confirmed” in series [2].

Turning to `O=C(O)c1ccccc1-c1c2cc(O)c(=O)cc-2oc2cc(O)c(O)cc12` [CPF, 9-(2-carboxyphenyl)-2,3,7-trihydroxy-6-fluorone, reference compound], the “color fading after color development” value in series [1] was “color fading after color development was observed; also recorded: fading after color development was remarkable”; in series [2] it was “color fading after color development was observed”.

With `O=C(O)c1ccc(-c2c3cc(O)c(=O)cc-3oc3cc(O)c(O)cc23)c(S(=O)(=O)O)c1` [2S-4CPF, 9-(4-carboxy-2-sulfophenyl)-2,3,7-trihydroxy-6-fluorone], the results for the “color fading after color development” value in series [1] and in series [2] were “fading after color development was not observed” and “color fading was not confirmed”, respectively.
